Laboratory results: paper PMC9369069, “Development of Sesamol Carbamate-L-Phenylalanine Prodrug Targeting L-Type Amino Acid Transporter1 (LAT1) as a Potential Antiproliferative Agent against Melanoma” (International Journal of Molecular Sciences, 2022)
Where two headings read alike, the source gives them in different places.

Target: T1, L-type amino acid transporter 1 (LAT1) (Homo sapiens, UniProt Q01650)
T1 construct: gene SLC7A5
Assay: cell-based

T1 sequence (Q01650 whole entry): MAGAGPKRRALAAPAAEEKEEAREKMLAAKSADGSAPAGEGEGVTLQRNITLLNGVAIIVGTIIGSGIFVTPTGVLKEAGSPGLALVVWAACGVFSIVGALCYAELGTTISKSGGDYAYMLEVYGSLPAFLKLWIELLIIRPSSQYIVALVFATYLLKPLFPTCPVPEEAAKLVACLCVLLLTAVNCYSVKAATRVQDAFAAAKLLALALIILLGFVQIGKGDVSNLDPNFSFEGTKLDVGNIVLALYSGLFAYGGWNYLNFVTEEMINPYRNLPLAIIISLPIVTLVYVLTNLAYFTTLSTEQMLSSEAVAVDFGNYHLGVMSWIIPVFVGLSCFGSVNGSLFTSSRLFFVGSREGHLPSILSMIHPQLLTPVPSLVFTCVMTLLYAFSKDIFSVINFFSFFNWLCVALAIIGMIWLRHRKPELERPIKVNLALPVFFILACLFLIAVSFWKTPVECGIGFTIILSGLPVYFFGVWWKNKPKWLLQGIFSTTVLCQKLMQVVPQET
T1 sequence (P08195 103-630 partner): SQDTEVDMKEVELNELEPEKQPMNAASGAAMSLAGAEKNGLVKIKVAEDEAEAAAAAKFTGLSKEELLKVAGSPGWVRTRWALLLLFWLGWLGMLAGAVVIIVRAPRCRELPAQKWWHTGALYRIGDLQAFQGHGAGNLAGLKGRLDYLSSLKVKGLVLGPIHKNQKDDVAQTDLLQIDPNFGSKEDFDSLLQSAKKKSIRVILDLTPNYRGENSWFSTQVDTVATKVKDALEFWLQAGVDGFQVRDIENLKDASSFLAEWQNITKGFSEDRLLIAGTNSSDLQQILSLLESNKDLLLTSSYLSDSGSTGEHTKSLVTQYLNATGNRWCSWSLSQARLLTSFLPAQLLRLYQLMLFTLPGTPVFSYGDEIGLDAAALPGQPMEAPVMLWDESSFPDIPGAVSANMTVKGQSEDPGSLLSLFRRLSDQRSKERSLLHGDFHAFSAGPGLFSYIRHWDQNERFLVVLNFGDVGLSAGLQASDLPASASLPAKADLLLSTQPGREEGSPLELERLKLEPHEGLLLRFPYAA

| SMILES | IC50 (read-out: IC50) [µM] | IC50 [µM] |
| --- | --- | --- |
| N[C@@H](Cc1ccccc1)C(=O)O [L-Phenylalanine] | 96.8 ± 11.5 | – |
| N[C@@H](Cc1ccc(NC(=O)Oc2ccc3c(c2)OCO3)cc1)C(=O)O [4-sesamol carbamate-L-phenylalanine prodrug] | – | 631 ± 38 |
| Oc1ccc2c(c1)OCO2 [Sesamol] | – | 4760 ± 219 |
